Assay results reported in PubChem BioAssay AID1259407 (Chemical Carcinogenesis Research Information System (CCRIS), 2018).
Calls of active or inactive are those of the source. No rule for the calls is given here.

Test system: CCRIS mutagenicity, Ames/micronucleus/aberration tests
Experiment: CCRIS mutagenicity studies
[1] = Test System: AMES SALMONELLA TYPHIMURIUM, Strain/Indicator: TA98, Metabolic Activation: NONE, Method: PREINCUBATION
[2] = Test System: AMES SALMONELLA TYPHIMURIUM, Strain/Indicator: TA100, Metabolic Activation: NONE, Method: PREINCUBATION
[3] = Test System: AMES SALMONELLA TYPHIMURIUM, Strain/Indicator: TA97, Metabolic Activation: NONE, Method: STANDARD PLATE
[4] = Test System: AMES SALMONELLA TYPHIMURIUM, Strain/Indicator: TA98, Metabolic Activation: NONE, Method: STANDARD PLATE
[5] = Test System: AMES SALMONELLA TYPHIMURIUM, Strain/Indicator: TA98, Metabolic Activation: RAT, LIVER, S-9, AROCLOR 1254, Method: STANDARD PLATE
[6] = Test System: AMES SALMONELLA TYPHIMURIUM, Strain/Indicator: TA100, Metabolic Activation: RAT, LIVER, S-9, AROCLOR 1254, Method: STANDARD PLATE
[7] = Test System: AMES SALMONELLA TYPHIMURIUM, Strain/Indicator: TA102, Metabolic Activation: NONE, Method: STANDARD PLATE
[8] = Test System: AMES SALMONELLA TYPHIMURIUM, Strain/Indicator: TA102, Metabolic Activation: RAT, LIVER, S-9, AROCLOR 1254, Method: STANDARD PLATE
[9] = Test System: CHINESE HAMSTER V-79, Strain/Indicator: V-79 (HGPRT)/6-THIOGUANINE, Metabolic Activation: NONE
[10] = Test System: AMES SALMONELLA TYPHIMURIUM, Strain/Indicator: TA100, Metabolic Activation: NONE, Method: STANDARD PLATE

Q: For `CCc1ccc([N+](=O)[O-])cc1`, which mutagenic call [1] is on record?
A: The mutagenic call was “inactive; negative”.

Q: And the mutagenic call (Test System: AMES SALMONELLA TYPHIMURIUM, Strain/Indicator: TA98, Metabolic Activation: RAT, LIVER, S-9, KANECHLOR 500, Method: PREINCUBATION)?
A: The mutagenic call was “inactive; negative”.

Q: And the mutagenic call [2]?
A: Its mutagenic call is “inactive; negative”.

Q: What about the mutagenic call (Test System: AMES SALMONELLA TYPHIMURIUM, Strain/Indicator: TA100, Metabolic Activation: RAT, LIVER, S-9, KANECHLOR 500, Method: PREINCUBATION) of the same compound?
A: The mutagenic call was “inactive; negative”.

Q: Which results are given for `O=C(O)/C(Cl)=C(\C(=O)O)C(Cl)Cl`?
A: mutagenic call [3]: inactive; negative; mutagenic call (Test System: AMES SALMONELLA TYPHIMURIUM, Strain/Indicator: TA97, Metabolic Activation: RAT, LIVER, S-9, PHENOBARBITAL, Method: STANDARD PLATE): inactive; negative; mutagenic call [4]: inactive; negative; mutagenic call [5]: inactive; negative; mutagenic call (Test System: AMES SALMONELLA TYPHIMURIUM, Strain/Indicator: TA98, Metabolic Activation: RAT, LIVER, S-9, PHENOBARBITAL, Method: STANDARD PLATE): inactive; negative; mutagenic call [6]: inactive; negative; mutagenic call (Test System: AMES SALMONELLA TYPHIMURIUM, Strain/Indicator: TA100, Metabolic Activation: RAT, LIVER, S-9, PHENOBARBITAL, Method: STANDARD PLATE): inactive; negative; mutagenic call [7]: inactive; negative; mutagenic call [8]: inactive; negative

Q: With `COc1cccc2c1C(=N)c1c(O)c3c(c(O)c1C2=O)C[C@@](O)(C(C)=O)C[C@@H]3O[C@H]1C[C@H](N)[C@H](O)[C@H](C)O1` as the compound, how does the mutagenic call [9] read?
A: Its mutagenic call is “active; positive”.

Q: For `CC1=CC(=O)C=C2CC[C@@H]3[C@H](CC[C@]4(C)C(=O)CC[C@@H]34)[C@@]12C`, which mutagenic call (End Point: IN VITRO CHROMOSOMAL ABERRATIONS, Test System: HUMAN PERIPHERAL LYMPHOCYTES, Metabolic Activation: NONE) is on record?
A: Its mutagenic call is “inactive; negative”.

Q: And the mutagenic call (End Point: IN VITRO CHROMOSOMAL ABERRATIONS, Test System: HUMAN PERIPHERAL LYMPHOCYTES, Metabolic Activation: RAT, LIVER, S-9, AROCLOR 1254)?
A: The mutagenic call was “inactive; negative”.

Q: What about the mutagenic call (End Point: IN VIVO MICRONUCLEUS, Test System: BONE MARROW POLYCHROMATIC ERYTHROCYTES, Species: MOUSE, Strain/Sex: NMRI/MALE, FEMALE, Route: INTRAGASTRIC) of the same compound?
A: The mutagenic call was “inactive; negative”.

Q: And the mutagenic call [1]?
A: Its mutagenic call is “inactive; negative”.

Q: And the mutagenic call [4]?
A: Its mutagenic call is “inactive; negative”.

Q: And the mutagenic call (Test System: AMES SALMONELLA TYPHIMURIUM, Strain/Indicator: TA98, Metabolic Activation: RAT, LIVER, S-9, AROCLOR 1254, Method: PREINCUBATION)?
A: Its mutagenic call is “inactive; negative”.

Q: And the mutagenic call [5]?
A: The mutagenic call was “inactive; negative”.

Q: What about the mutagenic call [2] of the same compound?
A: Its mutagenic call is “inactive; negative”.

Q: And the mutagenic call [10]?
A: The mutagenic call was “inactive; negative”.

Q: And the mutagenic call (Test System: AMES SALMONELLA TYPHIMURIUM, Strain/Indicator: TA100, Metabolic Activation: RAT, LIVER, S-9, AROCLOR 1254, Method: PREINCUBATION)?
A: Its mutagenic call is “inactive; negative”.

Q: And the mutagenic call [6]?
A: Its mutagenic call is “inactive; negative”.

Q: And the mutagenic call (Test System: AMES SALMONELLA TYPHIMURIUM, Strain/Indicator: TA1535, Metabolic Activation: NONE, Method: PREINCUBATION)?
A: Its mutagenic call is “inactive; negative”.

Q: What about the mutagenic call (Test System: AMES SALMONELLA TYPHIMURIUM, Strain/Indicator: TA1535, Metabolic Activation: NONE, Method: STANDARD PLATE) of the same compound?
A: Its mutagenic call is “inactive; negative”.

Q: And the mutagenic call (Test System: AMES SALMONELLA TYPHIMURIUM, Strain/Indicator: TA1535, Metabolic Activation: RAT, LIVER, S-9, AROCLOR 1254, Method: PREINCUBATION)?
A: Its mutagenic call is “inactive; negative”.

Q: What about the mutagenic call (Test System: AMES SALMONELLA TYPHIMURIUM, Strain/Indicator: TA1535, Metabolic Activation: RAT, LIVER, S-9, AROCLOR 1254, Method: STANDARD PLATE) of the same compound?
A: The mutagenic call was “inactive; negative”.

Q: What about the mutagenic call (Test System: AMES SALMONELLA TYPHIMURIUM, Strain/Indicator: TA1537, Metabolic Activation: NONE, Method: PREINCUBATION) of the same compound?
A: Its mutagenic call is “inactive; negative”.

Q: What about the mutagenic call (Test System: AMES SALMONELLA TYPHIMURIUM, Strain/Indicator: TA1537, Metabolic Activation: NONE, Method: STANDARD PLATE) of the same compound?
A: Its mutagenic call is “inactive; negative”.

Q: And the mutagenic call (Test System: AMES SALMONELLA TYPHIMURIUM, Strain/Indicator: TA1537, Metabolic Activation: RAT, LIVER, S-9, AROCLOR 1254, Method: PREINCUBATION)?
A: Its mutagenic call is “inactive; negative”.

Q: And the mutagenic call (Test System: AMES SALMONELLA TYPHIMURIUM, Strain/Indicator: TA1537, Metabolic Activation: RAT, LIVER, S-9, AROCLOR 1254, Method: STANDARD PLATE)?
A: The mutagenic call was “inactive; negative”.

Q: And the mutagenic call (Test System: AMES SALMONELLA TYPHIMURIUM, Strain/Indicator: TA1538, Metabolic Activation: NONE, Method: PREINCUBATION)?
A: The mutagenic call was “inactive; negative”.

Q: What about the mutagenic call (Test System: AMES SALMONELLA TYPHIMURIUM, Strain/Indicator: TA1538, Metabolic Activation: NONE, Method: STANDARD PLATE) of the same compound?
A: The mutagenic call was “inactive; negative”.

Q: What about the mutagenic call (Test System: AMES SALMONELLA TYPHIMURIUM, Strain/Indicator: TA1538, Metabolic Activation: RAT, LIVER, S-9, AROCLOR 1254, Method: PREINCUBATION) of the same compound?
A: Its mutagenic call is “inactive; negative”.

Q: What about the mutagenic call (Test System: AMES SALMONELLA TYPHIMURIUM, Strain/Indicator: TA1538, Metabolic Activation: RAT, LIVER, S-9, AROCLOR 1254, Method: STANDARD PLATE) of the same compound?
A: Its mutagenic call is “inactive; negative”.

Q: And the mutagenic call [9]?
A: Its mutagenic call is “inactive; negative”.

Q: And the mutagenic call (Test System: CHINESE HAMSTER V-79, Strain/Indicator: V-79 (HGPRT)/6-THIOGUANINE, Metabolic Activation: RAT, LIVER, S-9, AROCLOR 1254)?
A: Its mutagenic call is “inactive; negative”.

Q: `CC1(C)[C@H](C(=O)O[C@H](C#N)c2cccc(Oc3ccccc3)c2)[C@@H]1C=C(Cl)Cl` was tested. Which mutagenic call (End Point: In vitro micronucleus, Test System: Human peripheral blood lymphocytes) did it give?
A: Its mutagenic call is “active; positive. commercial product containing 10% alpha-cypermethrin in xylene emulsi”.

Q: How did the mutagenic call (Test System: CHINESE HAMSTER V-79, Strain/Indicator: V-79/OUABAIN, Metabolic Activation: NONE, Method: STANDARD PLATE) turn out when `O=C(O)CN(CC(=O)O)C1C[C@H]1N(CC(=O)O)CC(=O)O` (stereo partly specified) was run?
A: Its mutagenic call is “active; positive”.

Q: And the mutagenic call (Test System: UDS RODENT CELLS, Strain/Indicator: THY INCORP (NON-S-PHASE), Metabolic Activation: NONE, Method: AUTORADIOGRAPHY)?
A: Its mutagenic call is “active; positive”.

Q: Which results are given for `CC(=O)n1ccnc1`?
A: mutagenic call [3]: inactive; negative; mutagenic call (Test System: AMES SALMONELLA TYPHIMURIUM, Strain/Indicator: TA97, Metabolic Activation: RAT, LIVER, S-9, AROCLOR 1254, Method: STANDARD PLATE): inactive; negative; mutagenic call [4]: inactive; negative; mutagenic call [5]: inactive; negative; mutagenic call [10]: inactive; negative; mutagenic call [6]: inactive; negative; mutagenic call [7]: inactive; negative; mutagenic call [8]: inactive; negative

Q: Which mutagenic call (Test System: AMES SALMONELLA TYPHIMURIUM, Strain/Indicator: TA100, Metabolic Activation: S-9, Method: STANDARD PLATE) does the source give for `O=C(N=c1sn(C(=O)c2ccc([N+](=O)[O-])cc2)c2ccc([N+](=O)[O-])cc12)c1ccc([N+](=O)[O-])cc1` here?
A: Its mutagenic call is “active; positive”.
